Among the data in PubChem BioAssay AID268 (DTP/NCI, 2004) are T/C values, retold here.

For this test, the system named is CD2F1 mice, P1798 lymphosarcoma sc, tumor weight T/C. Put plainly: NCI In Vivo Anticancer Drug Screen. Data for tumor model P1798 Lymphosarcoma (subcutaneous) in CD2F1 (CDF1) mice. Conditions: higher = larger tumour. How it is done: The antitumor activity of compounds was measured in mice bearing transplantable tumors. Survival or tumor size were measured and the results are expressed as the measurement made in the treated group (T) divided by the measurement made in the vehicle treated control group (C). The tumor model used in this assay is P1798 Lymphosarcoma (subcutaneous) in CD2F1 (CDF1) mice

The mark [1] stands for this setting: endpoint: mean tumor weight, dose: 50.0 mg/kg/injection, schedule: Q01DX010 (ip), vehicle: saline.
Where [2] appears, read: endpoint: mean tumor weight, dose: 100.0 mg/kg/injection, schedule: Q01DX010 (ip), vehicle: saline.
The mark [3] stands for this setting: endpoint: mean tumor weight, dose: 6.25 mg/kg/injection, schedule: Q02DX010 (sc), vehicle: steriod suspending solution.
Setting [4] is: endpoint: mean tumor weight, dose: 12.5 mg/kg/injection, schedule: Q01DX005 (sc), vehicle: steriod suspending solution.
Where [5] appears, read: endpoint: mean tumor weight, dose: 12.5 mg/kg/injection, schedule: Q02DX010 (sc), vehicle: steriod suspending solution.
Setting [6] is: endpoint: mean tumor weight, dose: 25.0 mg/kg/injection, schedule: Q01DX005 (sc), vehicle: steriod suspending solution.
Setting [7] is: endpoint: mean tumor weight, dose: 25.0 mg/kg/injection, schedule: Q02DX010 (sc), vehicle: steriod suspending solution.
[8] abbreviates: endpoint: mean tumor weight, dose: 50.0 mg/kg/injection, schedule: Q01DX005 (sc), vehicle: steriod suspending solution.

Where “and” joins values, the source holds several entries; their conditions need not be identical. Equal entries are not always repeated.

Take `CN(C)N=Nc1cccc([N+](=O)[O-])c1`: the T/C (in general, the result in the treated group divided by that in the control group, in per cent) was 82 % of control (endpoint: mean tumor weight, dose: 55.0 mg/kg/injection, schedule: Q01DX011 (ip), vehicle: saline); 188 % of control (endpoint: mean tumor weight, dose: 80.0 mg/kg/injection, schedule: Q01DX011 (ip), vehicle: saline); 89 % of control (endpoint: mean tumor weight, dose: 120.0 mg/kg/injection, schedule: Q01DX011 (ip), vehicle: saline); 49 % of control (endpoint: mean tumor weight, dose: 178.0 mg/kg/injection, schedule: Q01DX010 (ip), vehicle: saline); 113 % of control (endpoint: mean tumor weight, dose: 178.0 mg/kg/injection, schedule: Q01DX011 (ip), vehicle: saline); 74 % of control (endpoint: mean tumor weight, dose: 267.0 mg/kg/injection, schedule: Q01DX010 (ip), vehicle: saline).
Regarding `CN(C)/N=N/c1nc[nH]c1C(N)=O`, the T/C by setting is: under setting [1], 58 % of control; under setting [2], 47 % of control; (endpoint: mean tumor weight, dose: 200.0 mg/kg/injection, schedule: Q01DX010 (ip), vehicle: saline) 7 % of control; (endpoint: mean tumor weight, dose: 400.0 mg/kg/injection, schedule: Q01DX010 (ip), vehicle: saline) 3 % of control.
Turning to `CC(=O)OCC(=O)[C@@]1(O)CC[C@H]2[C@@H]3CCC4=CC(=O)[C@H](C)C[C@]4(C)[C@@]3(F)[C@@H](O)C[C@@]21C`, the T/C is, setting by setting: (endpoint: mean tumor weight, dose: 3.75 mg/kg/injection, schedule: Q01DX Z (sc), vehicle: steriod suspending solution) 94 % of control; (endpoint: mean tumor weight, dose: 6.25 mg/kg/injection, schedule: Q01DX010 (sc), vehicle: steriod suspending solution) 111 % of control; under setting [3], 94 % of control; (endpoint: mean tumor weight, dose: 7.5 mg/kg/injection, schedule: Q01DX Z (sc), vehicle: steriod suspending solution) 111 % of control; under setting [4], 38 % of control; under setting [5], 101 % of control. The T/C is 74 % of control (endpoint: mean tumor weight, dose: 15.0 mg/kg/injection, schedule: Q01DX Z (sc), vehicle: steriod suspending solution); 5 % of control under setting [6]; 1 % of control and 2 % of control and 26 % of control (endpoint: mean tumor weight, dose: 25.0 mg/kg/injection, schedule: Q01DX010 (sc), vehicle: steriod suspending solution); 89 % of control under setting [7]; 74 % of control (endpoint: mean tumor weight, dose: 30.0 mg/kg/injection, schedule: Q01DX Z (sc), vehicle: steriod suspending solution); 2 % of control under setting [8]. The T/C is 88 % of control (endpoint: mean tumor weight, dose: 60.0 mg/kg/injection, schedule: Q01DX Z (sc), vehicle: steriod suspending solution) and 1 % of control (endpoint: mean tumor weight, dose: 100.0 mg/kg/injection, schedule: Q01DX005 (sc), vehicle: steriod suspending solution).
Take `C[C@@H]1C[C@H]2[C@@H]3CCC4=CC(=O)C=C[C@]4(C)[C@@]3(F)[C@@H](O)C[C@]2(C)[C@@]1(O)C(=O)CO`: the T/C reads like this: (endpoint: mean tumor weight (est.), dose: 3.13 mg/kg/injection, schedule: Q01DX016 (sc), vehicle: saline) 55 % of control; (endpoint: mean tumor weight (est.), dose: 6.25 mg/kg/injection, schedule: Q01DX016 (sc), vehicle: saline) 7 % of control; (endpoint: mean tumor weight, dose: 3.13 mg/kg/injection, schedule: Q01DX005 (sc), vehicle: steriod suspending solution) 33 % of control; (endpoint: mean tumor weight, dose: 3.13 mg/kg/injection, schedule: Q01DX010 (sc), vehicle: steriod suspending solution) 5 % of control; (endpoint: mean tumor weight, dose: 6.25 mg/kg/injection, schedule: Q01DX005 (sc), vehicle: steriod suspending solution) 8 % of control; under setting [3], 116 % of control. The T/C under setting [4] was 4 % of control, the T/C under setting [5] is 98 % of control, the T/C under setting [6] was 1 % of control and the T/C under setting [7] was 56 % of control.
For the molecule `C1CN1c1nc(N2CC2)nc(N2CC2)n1`, the T/C (endpoint: mean tumor weight, dose: 0.06 mg/kg/injection, schedule: Q01DX010 (ip), vehicle: saline) was 114 % of control; the T/C (endpoint: mean tumor weight, dose: 0.5 mg/kg/injection, schedule: Q01DX010 (ip), vehicle: saline) was 29 % of control and 37 % of control.
For `CC(=O)OC(C)(C)/C=C/C(=O)[C@](C)(O)[C@H]1[C@H](O)C[C@@]2(C)[C@@H]3CC=C4[C@@H](C=C(O)C(=O)C4(C)C)[C@]3(C)C(=O)C[C@]12C`, the T/C (endpoint: mean tumor weight, dose: 0.15 mg/kg/injection, schedule: Q01DX009 (ip), vehicle: saline with Tween-80) was 100 % of control; the T/C (endpoint: mean tumor weight, dose: 0.3 mg/kg/injection, schedule: Q01DX009 (ip), vehicle: saline with Tween-80) was 84 % of control; the T/C (endpoint: mean tumor weight, dose: 0.4 mg/kg/injection, schedule: Q01DX011 (ip), vehicle: carboxymethylcellulose (CMC)) was 84 % of control; the T/C (endpoint: mean tumor weight, dose: 0.6 mg/kg/injection, schedule: Q01DX009 (ip), vehicle: saline with Tween-80) is 92 % of control; the T/C (endpoint: mean tumor weight, dose: 0.8 mg/kg/injection, schedule: Q01DX011 (ip), vehicle: carboxymethylcellulose (CMC)) was 95 % of control; the T/C (endpoint: mean tumor weight, dose: 1.6 mg/kg/injection, schedule: Q01DX011 (ip), vehicle: carboxymethylcellulose (CMC)) is 115 % of control. The T/C (endpoint: mean tumor weight, dose: 3.2 mg/kg/injection, schedule: Q01DX011 (ip), vehicle: carboxymethylcellulose (CMC)) is 47 % of control.
For the molecule `CCN(CC)CCCC(C)Nc1c2ccc(Cl)cc2nc2ccc(OC)cc12` (centres undefined), the T/C reads like this: (endpoint: mean tumor weight, dose: 12.5 mg/kg/injection, schedule: Q01DX010 (ip), vehicle: saline) 103 % of control; (endpoint: mean tumor weight, dose: 25.0 mg/kg/injection, schedule: Q01DX010 (ip), vehicle: saline) 103 % of control and 88 % of control; under setting [1], 81 % of control and 85 % of control; under setting [2], 61 % of control and 64 % of control.
For the molecule `C[C@]12C=CC(=O)C=C1CC[C@H]1[C@@H]3C[C@@H](O)[C@](O)(C(=O)CO)[C@@]3(C)C[C@H](O)[C@@]12F`, the T/C is, setting by setting: under setting [4], 16 % of control; (endpoint: mean tumor weight, dose: 12.5 mg/kg/injection, schedule: Q03DX004 (sc), vehicle: steriod suspending solution) 26 % of control; under setting [6], 2 % of control; under setting [7], 115 % of control; (endpoint: mean tumor weight, dose: 25.0 mg/kg/injection, schedule: Q03DX004 (sc), vehicle: steriod suspending solution) 6 % of control; under setting [8], 2 % of control. For the same molecule, the T/C reads like this: (endpoint: mean tumor weight, dose: 50.0 mg/kg/injection, schedule: Q02DX010 (sc), vehicle: steriod suspending solution) 122 % of control; (endpoint: mean tumor weight, dose: 50.0 mg/kg/injection, schedule: Q03DX004 (sc), vehicle: steriod suspending solution) 5 % of control.
Consider `CC(=O)OC(C)(C)/C=C/C(=O)[C@](C)(O)[C@H]1[C@H](O)C[C@@]2(C)[C@@H]3CC=C4[C@@H](CC[C@H](O)C4(C)C)[C@]3(CO)C(=O)C[C@]12C`, for which the T/C reads like this: (endpoint: mean tumor weight, dose: 0.16 mg/kg/injection, schedule: Q01DX010 (ip), vehicle: saline) 109 % of control; (endpoint: mean tumor weight, dose: 0.25 mg/kg/injection, schedule: Q01DX010 (ip), vehicle: saline) 89 % of control; (endpoint: mean tumor weight, dose: 0.38 mg/kg/injection, schedule: Q01DX010 (ip), vehicle: saline) 102 % of control; (endpoint: mean tumor weight, dose: 0.57 mg/kg/injection, schedule: Q01DX010 (ip), vehicle: saline) 109 % of control.
